Structures can show the parent of a compound that is named as a salt.
Biological target: T1, 5-HT2C receptor (Homo sapiens, UniProt P28335)
T1 construct: host or cells: U2OS
Assay: Human 5-HT2C functional assay (beta-arrestin2 recruitment, U2OS_HTR2C_β-Arrestin cells)
Format: cell-based
Conditions: for EC50: beta-arrestin2 recruitment, U2OS_HTR2C_β-Arrestin cells, 1.5 h incubation, read-out: EC50 5-HT2C (potency in functional assay); for Emax: relative efficacy vs response to 10 μM 5-HT or maximal 5-HT effect (100%)
Method: The functional activity of compounds of formula I was assayed by incubation with U2OS_HTR2C_β-Arrestin cells (DiscoverX, 93-0289C3) to induce beta-arrestin2 recruitment to the 5-HT2C receptor. The agonist-induced recruitment and proximity of the receptor and beta-arrestin2 leads to complementation and formation of active β-galactosidase. The enzyme complementation results in enzyme activity, which is measured following the termination of the agonist incubation using DiscoveRx's detection reagent, which contains a chemiluminescent substrate which produces a high intensity signal. Cells were plated and a medium-change to a 1% serum containing medium was performed 24h later. The next day, test compounds were added and incubated for 1.5 h before addition of detection reagent.
The response produced was measured and compared with the response produced by 10 [mu]M 5-HT or the maximal effect induced by 5-HT (defined as 100%) to which it was expressed as a percentage response (relative efficacy). Dose response curves were constructed using Graphpad Prism (Graph Software Inc.) or using in house adapted software using a 4 parameter dose response model with variable slope (fit=(Bottom+(Top-Bottom)/(1+10^∧((Log EC50−x)*HillSlope))res=(y-fit)). Results are compiled in the table below.

T1 sequence (P28335 33-458): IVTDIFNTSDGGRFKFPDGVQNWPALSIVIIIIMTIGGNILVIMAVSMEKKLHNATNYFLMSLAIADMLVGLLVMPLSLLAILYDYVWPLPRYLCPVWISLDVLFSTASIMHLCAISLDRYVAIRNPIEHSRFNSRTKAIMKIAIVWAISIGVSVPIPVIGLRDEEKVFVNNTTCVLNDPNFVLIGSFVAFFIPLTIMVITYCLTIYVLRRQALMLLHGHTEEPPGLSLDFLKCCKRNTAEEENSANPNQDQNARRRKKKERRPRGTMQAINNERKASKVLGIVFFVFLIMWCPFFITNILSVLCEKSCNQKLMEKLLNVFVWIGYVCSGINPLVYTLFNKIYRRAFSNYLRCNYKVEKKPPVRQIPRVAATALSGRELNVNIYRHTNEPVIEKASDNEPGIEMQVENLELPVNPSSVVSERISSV
T1 sequence (P32121 whole entry partner): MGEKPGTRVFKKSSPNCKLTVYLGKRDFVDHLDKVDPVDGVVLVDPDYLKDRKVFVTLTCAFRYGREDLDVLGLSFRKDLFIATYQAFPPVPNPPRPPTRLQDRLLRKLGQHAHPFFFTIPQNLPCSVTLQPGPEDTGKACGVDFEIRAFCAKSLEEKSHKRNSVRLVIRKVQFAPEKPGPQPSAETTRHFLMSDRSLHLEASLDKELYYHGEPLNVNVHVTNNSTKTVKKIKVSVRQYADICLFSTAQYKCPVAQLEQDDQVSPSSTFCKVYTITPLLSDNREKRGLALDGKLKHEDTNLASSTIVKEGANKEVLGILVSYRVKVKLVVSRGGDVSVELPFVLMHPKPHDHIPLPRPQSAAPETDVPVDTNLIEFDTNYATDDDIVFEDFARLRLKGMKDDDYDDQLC

Structure (SMILES) | EC50 | Emax
COc1nc(NCC2CCC(C(F)(F)F)CC2)c(F)cc1CNC(=O)[C@@H]1CCCN1 (single isomer, unassigned) [Example 149] | 20 to 200 nM | –
COc1nc(OCc2cc(F)cc(F)c2)c(F)cc1CNC(=O)[C@@H]1CCCN1 [Example 5, (S)—N-((6-((3,5-Difluorobenzyl)oxy)-5-fluoro-2-methoxypyridin-3-yl)methyl)pyrrolidine-2-carboxamide Hydrochloride] | < 20 nM | > 70%
COc1nc(OC[C@@H]2CCC(F)(F)C2)c(F)cc1CNC(=O)[C@@H]1CCCN1C [Example 16, (2S)—N-[[6-[[(1R)-3,3-Difluorocyclopentyl]methoxy]-5-fluoro-2-methoxy-3-pyridyl]methyl]-1-methyl-pyrrolidine-2-carboxamide] | < 20 nM | > 70%
COc1nc(OC2CCC(F)(F)CC2)c(F)cc1CNC(=O)[C@@H]1C=CCN1C [Example 21, (2S)—N-[[6-(4,4-Difluorocyclohexoxy)-5-fluoro-2-methoxy-3-pyridyl]methyl]-1-methyl-2,5-dihydropyrrole-2-carboxamide] | 20 to 200 nM | > 70%
COc1nc(OCC23CC(C2)C3)c(F)cc1CNC(=O)[C@@H]1CCCN1 [Example 22, (S)—N-((6-(Bicyclo[1.1.1]pentan-1-ylmethoxy)-5-fluoro-2-methoxypyridin-3-yl)methyl)pyrrolidine-2-carboxamide Hydrochloride] | < 20 nM | > 70%
COc1nc(OC2CCC(F)(F)CC2)c(F)cc1CNC(=O)[C@@H]1CCN1C [Example 39, (2S)—N-[[6-(4,4-Difluorocyclohexoxy)-5-fluoro-2-methoxy-3-pyridyl]methyl]-1-methyl-azetidine-2-carboxamide; Succinic Acid] | 20 to 200 nM | 50 to 70%
COc1nc(OCC2CC2(F)F)c(F)cc1CNC(=O)[C@@H]1CCCN1 (stereo partly drawn) [Example 41, (2S)—N-[[6-[(2,2-Difluorocyclopropyl)methoxy]-5-fluoro-2-methoxy-3-pyridyl]methyl]pyrrolidine-2-carboxamide; Succinic Acid] | < 20 nM | > 70%
COc1nc(OCCC(F)(F)C(F)(F)F)c(F)cc1CNC(=O)[C@@H]1CCCN1 [Example 45, (2S)—N-[[5-Fluoro-2-methoxy-6-(3,3,4,4,4-pentafluorobutoxy)-3-pyridyl]methyl]-pyrrolidine-2-carboxamide; Succinic Acid] | < 20 nM | > 70%
COc1nc(OC(C)C(F)(F)C(F)(F)F)c(F)cc1CNC(=O)[C@@H]1CCCN1 (stereo partly drawn) [Example 50, (2S)—N-[[5-Fluoro-2-methoxy-6-(2,2,3,3,3-pentafluoro-1-methyl-propoxy)-3-pyridyl]methyl]pyrrolidine-2-carboxamide; Succinic Acid] | < 20 nM | > 70%
COc1nc(OC2CCCCC2C(F)(F)F)c(F)cc1CNC(=O)[C@@H]1CCCN1 (stereo partly drawn) [Example 57, (2S)—N-[[5-Fluoro-2-methoxy-6-[2-(trifluoromethyl)cyclohexoxy]-3-pyridyl]methyl]pyrrolidine-2-carboxamide; 2,2,2-trifluoroacetic Acid] | < 20 nM | > 70%
COc1nc(OC2CC3C(C2)C3(F)F)c(F)cc1CNC(=O)C1CCCN1C (stereo not drawn) [Example 64, N-[[6-[(6,6-Difluoro-3-bicyclo[3.1.0]hexanyl)oxy]-5-fluoro-2-methoxy-3-pyridyl]methyl]-1-methyl-pyrrolidine-2-carboxamide Dihydrochloride] | < 20 nM | > 70%
COc1nc(OC2CCC(OC(F)F)CC2)c(F)cc1CNC(=O)[C@@H]1CCCN1 (stereo partly drawn) [Example 67, (2S)—N-[[6-[4-(Difluoromethoxy)cyclohexoxy]-5-fluoro-2-methoxy-3-pyridyl]-methyl]pyrrolidine-2-carboxamide] | < 20 nM | > 70%
COc1nc(OCC(F)(C(F)(F)F)C(F)(F)F)c(F)cc1CNC(=O)[C@@H]1CCCN1 [Example 69, (S)—N-((5-Fluoro-2-methoxy-6-(2,3,3,3-tetrafluoro-2-(trifluoromethyl)propoxy)pyridin-3-yl)methyl)pyrrolidine-2-carboxamide Hydrochloride] | < 20 nM | > 70%
COc1nc(OCC23CC4CC(CC(C4)C2)C3)c(F)cc1CNC(=O)[C@@H]1CCCN1 [Example 70, (2S)—N-[[6-(1-Adamantylmethoxy)-5-fluoro-2-methoxy-3-pyridyl]methyl]-pyrrolidine-2-carboxamide; 2,2,2-trifluoroacetic Acid] | < 20 nM | > 70%
COc1nc(O[C@H]2CC[C@H](C(F)(F)F)CC2)c(F)cc1CNC(=O)[C@H]1NC[C@@H]1C [Example 80, (2S,3 S)—N-[[5-Fluoro-2-methoxy-6-[4-(trifluoromethyl)cyclohexoxy]-3-pyridyl]methyl]-3-methyl-azetidine-2-carboxamide; Fumaric Acid] | 20 to 200 nM | > 70%
COc1nc(OC2CCC(C(F)(F)F)CC2)c(F)cc1CNC(=O)[C@H]1NC[C@@H]2C[C@@H]21 (stereo partly drawn) [Example 85, (1R,4S,5S)—N-[[5-Fluoro-2-methoxy-6-[4-(trifluoromethyl)cyclohexoxy]-3-pyridyl]methyl]-3-azabicyclo[3.1.0]hexane-4-carboxamide Hydrochloride] | < 20 nM | 30 to 50%
COc1nc(O[C@H]2C[C@H](C(F)(F)F)C2)c(F)cc1CN(C)C(=O)[C@@H]1CCCN1 [Example 120, (2S)—N-[[5-Fluoro-2-methoxy-6-[trans-3-(trifluoromethyl)cyclobutoxy]-3-pyridyl]-methyl]-N-methyl-pyrrolidine-2-carboxamide Hydrochloride] | < 20 nM | 50 to 70%
COc1nc(O[C@H]2C[C@@H](C(F)(F)F)C2)c(F)cc1CN(C)C(=O)[C@@H]1CCCN1 [Example 121, (2S)—N-[[5-Fluoro-2-methoxy-6-[cis-3-(trifluoromethyl)cyclobutoxy]-3-pyridyl]methyl]-N-methyl-pyrrolidine-2-carboxamide Hydrochloride] | < 20 nM | 50 to 70%
COc1nc(OCc2cc(F)cc(F)c2)c(F)cc1CN(C)C(=O)[C@@H]1CCCN1 [Example 122, (2S)—N-[[6-[(3,5-Difluorophenyl)methoxy]-5-fluoro-2-methoxy-3-pyridyl]methyl]-N-methyl-pyrrolidine-2-carboxamide Hydrochloride] | < 20 nM | > 70%
COc1nc(OC2CCC(F)(F)C2)c(F)cc1CN(C)C(=O)[C@@H]1CCCN1 (stereo partly drawn) [Example 123, (2S)—N-[[6-(3,3-Difluorocyclopentoxy)-5-fluoro-2-methoxy-3-pyridyl]methyl]-N-methyl-pyrrolidine-2-carboxamide Hydrochloride] | < 20 nM | 50 to 70%
COc1nc(OCc2ccc(F)cc2)c(F)cc1CN(C)C(=O)[C@@H]1CCCN1 [Example 124, (2S)—N-[[5-Fluoro-6-[(4-fluorophenyl)methoxy]-2-methoxy-3-pyridyl]methyl]-N-methyl-pyrrolidine-2-carboxamide Hydrochloride] | 20 to 200 nM | 50 to 70%
COc1nc(CC2CCCCC2)c(F)cc1CNC(=O)[C@@H]1CCCN1 [Example 129, (2S)—N-[[6-(Cyclohexylmethyl)-5-fluoro-2-methoxy-3-pyridyl]methyl]pyrrolidine-2-carboxamide] | < 20 nM | > 70%
COc1nc(N2CCCC2)c(F)cc1CNC(=O)[C@@H]1CCCN1 [Example 135, (2S)—N-[(5-Fluoro-2-methoxy-6-pyrrolidin-1-yl-3-pyridyl)methyl]pyrrolidine-2-carboxamide; 2,2,2-trifluoroacetic Acid] | 20 to 200 nM | > 70%
COc1nc(N2C[C@@H]3CC(F)(F)C[C@@H]3C2)c(F)cc1CNC(=O)[C@@H]1CCCN1 [Example 181, (2S)—N-[[6-[(3aR,6aS)-5,5-Difluoro-1,3,3a,4,6,6a-hexahydrocyclopenta[c]pyrrol-2-yl]-5-fluoro-2-methoxy-3-pyridyl]methyl]pyrrolidine-2-carboxamide; 2,2,2-trifluoroacetic Acid] | < 20 nM | –
COc1nc(C(F)(F)C(Cl)c2ccccc2)c(F)cc1CN(C)C(=O)C1CCCN1 (stereo not drawn) [Example 192, N-[[6-(2-Chloro-1,1-difluoro-2-phenyl-ethyl)-5-fluoro-2-methoxy-3-pyridyl]-methyl]-N-methyl-pyrrolidine-2-carboxamide Dihydrochloride] | 200 to 1000 nM | 50 to 70%

Reference: US20190062305A1, “PYRIDYL OR PYRAZINYL COMPOUNDS CARRYING A METHYL-BOUND ALPHA-AMINO ACID AMIDE GROUP” (ABBVIE DEUTSCHLAND GMBH & CO. KG, priority 2015, published 2019)
